Results reported in DBAASP.
Converted amounts (≈) assume the structure as drawn.

What was measured:
Assay in all cases: ≥ marks a high value that may be exact or a test limit, other limits are often not marked, values filed in µg/mL are converted to µM
[1] = test system: Bacillus subtilis CMCC 63501
[2] = test system: Enterococcus faecalis ATCC 29212
[3] = test system: Escherichia coli ATCC 25922
Escherichia coli UB1005 = test system: Escherichia coli UB1005
[4] = test system: Pseudomonas aeruginosa ATCC 27853
[5] = test system: Salmonella enterica subsp. enterica serovar Pullorum C79-13
[6] = test system: Salmonella typhimurium ATCC 7731
[7] = test system: Staphylococcus aureus ATCC 29213
[8] = test system: Staphylococcus aureus ATCC 43300
[9] = test system: Staphylococcus epidermidis ATCC 12228
Escherichia coli K88 = test system: Escherichia coli K88
[10] = test system: Escherichia coli O157:H7 CICC 21530
[11] = test system: Lacticaseibacillus rhamnosus 1.0911
[12] = test system: Lacticaseibacillus rhamnosus 1.0936
[13] = test system: Lacticaseibacillus rhamnosus 1.9021
[14] = test system: Lacticaseibacillus rhamnosus 8014
[15] = test system: Pseudomonas aeruginosa PAO1
[16] = test system: Salmonella enterica subsp. enterica serovar Choleraesuis CVCC 503
[17] = test system: Salmonella enterica subsp. enterica serovar Typhimurium ATCC 14028
[18] = test system: Streptococcus agalactiae BNCC 185941
Candida albicans = test system: Candida albicans
[19] = test system: Candida krusei CGMCC 2.1857
[20] = test system: Candida parapsilosis CGMCC 2.3989
[21] = test system: Candida tropicalis CGMCC 2.1975
Escherichia coli 1005 = test system: Escherichia coli 1005
[22] = test system: Salmonella enterica subsp. enterica serovar Pullorum ATCC 7913
[23] = test system: Staphylococcus aureus ATCC 25923

MIC [3] [µM] | MIC [4] [µM] | MIC [5] [µM] | MIC [7] [µM] | MIC [8] [µM] | MIC [9] [µM] | MIC (Escherichia coli K88) [µM] | MIC [10] [µM] | MIC [11] [µM] | MIC [12] [µM] | MIC [13] [µM] | MIC [14] [µM] | MIC [15] [µM] | MIC [17] [µM] | MIC [18] [µM] | MIC (Candida albicans) [µM] | MIC [19] [µM] | MIC [20] [µM] | MIC [21] [µM] | Compound | MIC [16] [µM] | other results
16 (≈ 28.1 µg/mL) | 16 (≈ 28.1 µg/mL) | 16 (≈ 28.1 µg/mL) | 8 (≈ 14 µg/mL) | 16 (≈ 28.1 µg/mL) | 16 (≈ 28.1 µg/mL) | – | – | – | – | – | – | – | – | – | – | – | – | – | CC[C@H](C)[C@H](N)C(=O)N[C@@H](Cc1cnc[nH]1)C(=O)N[C@@H](CCCCN)C(=O)N[C@@H](Cc1ccccc1)C(=O)N[C@@H](Cc1c[nH]c2ccccc12)C(=O)N[C@@H](CCCN=C(N)N)C(=O)N[C@@H](CCCN=C(N)N)C(=O)N[C@@H](Cc1c[nH]c2ccccc12)C(=O)N[C@@H](Cc1ccccc1)C(=O)N[C@@H](CCCCN)C(=O)N[C@@H](Cc1cnc[nH]1)C(=O)N[C@H](C(N)=O)[C@@H](C)CC [IHKFWRRWFKHI] | – | MIC [1]: ≥ 32 µM; MIC [2]: 16 µM (≈ 28.1 µg/mL); MIC (Escherichia coli UB1005): 8 µM (≈ 14 µg/mL); MIC [6]: 16 µM (≈ 28.1 µg/mL)
> 128 | > 128 | ≥ 64 | > 128 | > 128 | > 128 | ≥ 64 | ≥ 128 | ≥ 128 | ≥ 128 | ≥ 128 | ≥ 128 | > 128 | > 128 | ≥ 128 | – | – | – | – | CC(C)C[C@H](NC(=O)CNC(=O)[C@H](Cc1c[nH]c2ccccc12)NC(=O)CNC(=O)[C@H](CC(C)C)NC(=O)[C@H](CC(C)C)NC(=O)[C@H](CCCCN)NC(=O)[C@@H](N)CCCCN)C(=O)N[C@@H](CC(C)C)C(=O)N[C@@H](CCCCN)C(=O)N[C@@H](CCCCN)C(N)=O [KKLLGWGLLKK] | ≥ 128 | –
– | 8 (≈ 11 µg/mL) | 2 (≈ 2.74 µg/mL) | 32 (≈ 43.9 µg/mL) | 32 (≈ 43.9 µg/mL) | 32 (≈ 43.9 µg/mL) | 2 (≈ 2.74 µg/mL) | 8 (≈ 11 µg/mL) | 16 (≈ 21.9 µg/mL) | ≥ 32 | ≥ 32 | ≥ 128 | 16 (≈ 21.9 µg/mL) | 128 (≈ 175 µg/mL) | ≥ 128 | – | – | – | – | CC(C)C[C@H](NC(=O)[C@H](Cc1c[nH]c2ccccc12)NC(=O)[C@H](CC(C)C)NC(=O)[C@@H](NC(=O)[C@H](CC(C)C)NC(=O)[C@H](CCCCN)NC(=O)[C@@H](N)CCCCN)[C@@H](C)O)C(=O)N[C@H](C(=O)N[C@@H](CC(C)C)C(=O)N[C@@H](CCCCN)C(=O)N[C@@H](CCCCN)C(N)=O)[C@@H](C)O [KKLTLWLTLKK] | 8 (≈ 11 µg/mL) | –
– | – | – | 8 (≈ 13.5 µg/mL) | 4 (≈ 6.76 µg/mL) | 4 (≈ 6.76 µg/mL) | – | – | – | – | – | – | – | 4 (≈ 6.76 µg/mL) | – | 5.66 (≈ 9.56 µg/mL) | 2 (≈ 3.38 µg/mL) | ≥ 64 | 2 (≈ 3.38 µg/mL) | NC(=O)[C@H](CCCN=C(N)N)NC(=O)[C@H](Cc1ccccc1)NC(=O)[C@H](Cc1ccccc1)NC(=O)[C@H](CCCN=C(N)N)NC(=O)[C@H](CCCN=C(N)N)NC(=O)[C@H](Cc1ccccc1)NC(=O)[C@H](CCCN=C(N)N)NC(=O)[C@H](CCCN=C(N)N)NC(=O)[C@H](Cc1ccccc1)NC(=O)[C@H](Cc1ccccc1)NC(=O)[C@@H](N)CCCN=C(N)N [RFFRRFRRFFR] | – | MIC (Escherichia coli 1005): 8 µM (≈ 13.5 µg/mL); MIC [22]: 4 µM (≈ 6.76 µg/mL); MIC [23]: 4 µM (≈ 6.76 µg/mL)
– | – | – | 4 (≈ 6.08 µg/mL) | 8 (≈ 12.2 µg/mL) | 4 (≈ 6.08 µg/mL) | – | – | – | – | – | – | – | 8 (≈ 12.2 µg/mL) | – | 5.66 (≈ 8.6 µg/mL) | 4 (≈ 6.08 µg/mL) | 8 (≈ 12.2 µg/mL) | 2 (≈ 3.04 µg/mL) | CC(C)C[C@H](NC(=O)[C@H](CC(C)C)NC(=O)[C@H](CCCN=C(N)N)NC(=O)[C@H](CCCN=C(N)N)NC(=O)[C@H](CC(C)C)NC(=O)[C@H](CCCN=C(N)N)NC(=O)[C@H](CCCN=C(N)N)NC(=O)[C@H](CC(C)C)NC(=O)[C@H](CC(C)C)NC(=O)[C@@H](N)CCCN=C(N)N)C(=O)N[C@@H](CCCN=C(N)N)C(N)=O [RLLRRLRRLLR] | – | MIC (Escherichia coli 1005): 4 µM (≈ 6.08 µg/mL); MIC [22]: 8 µM (≈ 12.2 µg/mL); MIC [23]: 8 µM (≈ 12.2 µg/mL)
